In the assay the test system is HIV-1 R5 strains from clades C and D. Kind of assay: Inhibition of HIV-1 transcytosis across HEC-1 cell line with cyclized CDR3. The assay is classed as cell-based. As to conditions: cells preincubated 30 minutes at 17° C. with peptide; linear CDR3 as control.

Bridges are numbered along the chain shown (N, C = ends). Where no end group is shown, it is not given here.

As to “cyclized CDR3 derived from Fab clone 43: CDR3 of clone 43 H chain (SEQ ID NO:1) with flanking residues, cyclized by disulfide bridge, SEQ ID NO:12 (CARDPRYYDAWSGPQLYYYYMDVWCKG; disulfide 1-25; listed as Homo Sapiens)”, the inhibition of transcytosis result was “more than 50%”.

Values taken from patent US20090191216A1, “Antibody or a fragment thereof, having neutralizing activity against HIV” (priority 2005, published 2009).
